Data on two compounds can be found in publication PMC11206507, “Unraveling the Impact of Six Pentacyclic Triterpenes Regulating Metabolic Pathways on Lung Carcinoma Cells” (Pharmaceuticals, 2024).

Common to all, as to assay type: cell-based, human
In experiment [1] the test system is A549 cells. Nature of the experiment: Total ROS production assay (DCF). The note with it: A549, IC25 (CisPt 25 μM), 24 h. On the procedure: The production of total ROS was determined using the 2′,7′-dichlorodihydrofluorescein diacetate (DCF) fluorescent dye. A549 cells were seeded in a concentration of 1 × 10^5 cells/mL into black 96-well plates with a clear bottom. After 24 h, the cells were incubated with the triterpenes (IC25) and controls for 24 h. Then, 50 μL of DCF (10 μM) was added to each well and they were incubated for 1 h at room temperature. Then, the fluorescence of each well was measured (Ex/Em = 485/530 nm) in the Tecan® M200 plate reader.
This experiment was performed in triplicate. All data were expressed by plotting the values as an average of three measurements for each treatment condition as the mean ± SD and analyzed with the software GraphPad Prism 9. Statistical analysis was performed using one-way analysis of variance (ANOVA) to compare the mean value of each treated type of cells versus the control (untreated cells). The statistical significance defined by the software for p values was **** < 0.0001, *** from 0.001 to 0.0001, ** from 0.001 to 0.01, * from 0.01 to 0.05, and non-significant (ns) ≥ 0.05.

For experiment [2], the system named is STAT3 gene. Nature of the experiment: RT-qPCR gene expression of STAT3. Particulars: A549, IC25, 24 h. As for the experimental part: A549 cells were seeded into 6-well plates at a density of 1 × 10^6 cells/mL in supplemented DMEM. The cells were incubated with the triterpenes (IC25) for 24 h. Total RNA was extracted from the cells using the TRIzol reagent (Invitrogen Corporation, Carlsbad, CA, USA) according to the manufacturer’s instructions. The purity and concentration of RNA were assessed using a NanoDrop spectrophotometer (Thermo Fisher Scientific). cDNA was synthesized using the High-Capacity cDNA Reverse Transcription Kit (Applied Biosystems) according to the manufacturer’s instructions.
RT-qPCR was performed on a StepOnePlus® Real-Time PCR System (Thermo Fisher Scientific) using TaqMan Gene Expression Assays (Applied Biosystems) for PDL1 (CD274; Assay ID: Hs01125297_m1), ribonucleotide reductase (RR) M1 (Assay ID: Hs01040697_m1), and STAT3 (Assay ID: Hs01047586_g1). Each reaction consisted of 10 ng of cDNA, TaqMan Gene Expression Master Mix (Applied Biosystems), and TaqMan probes. The PCR cycling conditions were as follows: 95 °C for 10 min, followed by 40 cycles of 95 °C for 15 s and 60 °C for 60 s. The relative gene expression levels were calculated using the ΔΔCt method. GAPDH (Assay ID: Hs02758991_g1) was used as the endogenous control for normalization.
All RT-qPCR experiments were performed at least in triplicate. All data were expressed by plotting values with an average of four measurements for each treatment condition as the mean ± SD and analyzed with the software GraphPad Prism 9. Statistical analysis was performed using one-way analysis of variance (ANOVA) to compare the mean value of each treated type of cells versus the control (untreated cells). The statistical significance defined by the software for p values was **** < 0.0001, *** from 0.001 to 0.0001, ** from 0.001 to 0.01, * from 0.01 to 0.05, and non-significant (ns) ≥ 0.05.
Background: In qPCR the cycle at which signal appears reflects the starting amount.

In experiment [3] the test system is DNA damage machinery in A549 cells. Put plainly: DNA damage assay (anti-pH2AX / anti-pATM, flow cytometry). The note with it: A549, IC50, 24 h, vs untreated cells. As for the experimental part: We used flow cytometry to analyze several cellular mechanistic pathways in A549 cells after incubation with the triterpenes. In general, the cells were seeded in a 6-well plate at a density of 1 × 10^6 cells/mL and incubated for 24 h in supplemented DMEM. After 24 h, the A549 cells were treated with the triterpenes, following each manufacturer’s protocol. All of the following experiments were performed in a Muse® Cell Analyzer (EMD Millipore Corporation, Temecula, CA). The instrument was calibrated before each assay using the Muse® System Check Kit (Luminex MCH100101, Luminex Corporation). Each assay was run at least in two independent experiments. For each experiment, all samples were analyzed in triplicate in the instrument and the capillary line was washed after each sample run to avoid artifacts. In addition, to address the issue of cell doublets, we used the Muse® Cell Dispersal Reagent (Luminex Corporation) in all experiments. The concentration of the triterpenes in each assay was selected depending on the cellular concentration necessary to generate the gain signal in the instrument. This means that we attempted to select concentrations avoiding excessive cytotoxicity to accurately determine the respective signal from each assay.
Then, the A549 cells were scraped and centrifuged. The pellet was suspended in the assay buffer from the Luminex MCH200107 kit (Luminex Corporation). […]
(In general: In flow cytometry, cells or beads pass a laser one at a time.)

For `C=C(C)[C@@H]1CC[C@]2(C(=O)O)CC[C@]3(C)[C@H](CC[C@@H]4[C@@]5(C)CC[C@H](O)C(C)(C)[C@@H]5CC[C@]43C)[C@@H]12` [BeA, betulinic acid], in experiment [1], the “Total ROS production (in words)” value is on record as “highest increase in total ROS”. Moreover, the “STAT3 gene expression (in words)” value in experiment [2] is reported as “superior in suppressing both genes”.
Turning to `C[C@H]1[C@H](C)CC[C@]2(C(=O)O)CC[C@]3(C)C(=CC[C@@H]4[C@@]5(C)CC[C@H](O)C(C)(C)[C@@H]5CC[C@]43C)[C@H]12` [UrA, ursolic acid], the “Activation of the DNA damage machinery (in words)” value in experiment [3] is recorded as “caused the activation of the DNA damage machinery”.
